Laboratory results as given in patent US9133167B2, “Antibacterial quinoline derivatives” (JANSSEN PHARMACEUTICA NV, priority 2012, dated 2015).
Values after ≈ are worked out from the molar mass of the structure shown. Structures can show the parent of a compound that is named as a salt.

Experiments:
[1] = tested on: Staphylococcus aureus (ATCC29213); assay: Microtitre plate assay, IC90 for bacterial growth, Staphylococcus aureus strain; assay type: cell-based; settings: 90% inhibitory concentration for bacterial growth, 24 hours at 37° C.; for IC90: read-out: IC90 (μg/ml) STA B29213
Protocol: D.2. In-Vitro Method for Testing Compounds for Anti-Bacterial Activity Against a Non-Mycobacterial Strain
Preparation of Bacterial Suspensions for Susceptibility Testing:
The bacteria used in this study were grown overnight in flasks containing 100 ml Mueller-Hinton Broth (Becton Dickinson—cat. no. 275730) in sterile de-ionized water, with shaking, at 37° C. Stocks (0.5 ml/tube) were stored at −70° C. until use. Bacteria titrations were performed in microtiter plates to detect the TCID50, in which TCID50 represents the dilution that gives rise to bacterial growth in 50% of inoculated cultures. In general, an inoculum level of approximately 100 TCID50 was used for susceptibility testing.
Anti Bacterial Susceptibility Testing: IC90 Determination
Flat-bottom, sterile 96-well plastic microtiter plates were filled with 180 μl of sterile deionized water, supplemented with 0.25% BSA. Subsequently, stock solutions (7.8× final test concentration) of compounds were added in 45 μl volumes in column 2 Serial five-fold dilutions (45 μl in 180 μl) were made directly in the microtiter plates from column 2 to reach column 11. Untreated control samples with (column 1) and without (column 12) inoculum were included in each microtiter plate. Depending on the bacteria type, approximately 10 to 60 CFU per well of bacteria inoculum (100 TCID50), in a volume of 100 μl in 2.8× Mueller-Hinton broth medium, was added to the rows A to H, except column 12. The same volume of broth medium without inoculum was added to column 12 in row A to H. The cultures were incubated at 37° C. for 24 hours under a normal atmosphere (incubator with open air valve and continuous ventilation). At the end of incubation, one day after inoculation, the bacterial growth was quantitated fluorometrically. Therefore resazurin (0.6 mg/ml) was added in a volume of 20 μl to all wells 3 hours after inoculation, and the plates were re-incubated overnight. A change in colour from blue to pink indicated the growth of bacteria. The fluorescence was read in a computer-controlled fluorometer (Cytofluor Biosearch) at an excitation wavelength of 530 nm and an emission wavelength of 590 nm. The % growth inhibition achieved by the compounds was calculated according to standard methods. The IC90 (expressed in μg/ml) was defined as the 90% inhibitory concentration for bacterial growth. The results are shown in Table 7 for an assay using a Staphylococcus aureus strain.

[2] = tested on: Mycobacterium smegmatis (ATCC607); assay: In-vitro anti-bacterial activity against strain M. smegmatis ATCC607 (Alamar Blue growth inhibition); assay type: cell-based; settings: 90% inhibitory concentration for bacterial growth, 48 hours at 37° C.; for IC90: Mycolicibacterium smegmatis, read-out: IC90 (μg/ml) MSM 607
Protocol: D.1. In-Vitro Method for Testing Compounds for Anti-Bacterial Activity Against Strain M. Smegmatis ATCC607.
Flat-bottom, sterile 96-well plastic microtiter plates were filled with 180 μl of sterile deionized water, supplemented with 0.25% BSA. Subsequently, stock solutions (7.8× final test concentration) of compounds were added in 45 μl volumes to a series of duplicate wells in column 2 so as to allow evaluation of their effects on bacterial growth. Serial five-fold dilutions (45 μl in 180 μl) were made directly in the microtiter plates from column 2 to 11 using a customised robot system (Zymark Corp., Hopkinton, Mass.). Pipette tips were changed after every 3 dilutions to minimize pipetting errors with high hydrophobic compounds. Untreated control samples with (column 1) and without (column 12) inoculum were included in each microtiter plate. Approximately 250 CFU per well of bacteria inoculum, in a volume of 100 in 2.8× Mueller-Hinton broth medium, was added to the rows A to H, except column 12. The same volume of broth medium without inoculum was added to column 12 in row A to H. The cultures were incubated at 37° C. for 48 hours in a humidified 5% CO2 atmosphere (incubator with open air valve and continuous ventilation). At the end of incubation, two days after inoculation, the bacterial growth was quantitated fluorometrically. Therefore Alamar Blue (10×) was added to all wells in a volume of 20 and plates were incubated for another 2 hours at […]
The fluorescence was read in a computer-controlled fluorometer (Cytofluor, Biosearch) at an excitation wavelength of 530 nm and an emission wavelength of 590 nm (gain 30). The percentage growth inhibition achieved by the compounds was calculated according to standard methods and expressed as IC90 […] which defines the 90% inhibitory concentration for bacterial growth.

Structure (SMILES)	IC90 (μg/ml) STA B29213 [1] [µg/mL]	IC90 (μg/ml) MSM 607 [2] [µg/mL]	other results
CS(=O)(=O)c1ccc2[nH]c(=O)c(C(c3ccccc3)C3(O)CCNCC3)cc2c1 (centres unmarked) (as salt: HCl) [Compound 100]			melting point: > 260 °C
COc1nc2ccc(C(C)C)cc2cc1C(c1ccc(Cl)cc1)C1(O)CCN(CCc2ccccc2)CC1.O=C(O)/C=C/C(=O)O (racemic) [Compound 91]	3.16	0.63	
COc1nc2ccc(-c3cccnc3)cc2cc1C(c1ccc(Cl)cc1)C1(O)CCNCC1.O=C(O)/C=C/C(=O)O (racemic) [Compound 93]	10.83	3.05	
COc1nc2ccc(-c3cccnc3)cc2cc1C(c1ccc(Cl)cc1)C1(O)CCN(C)CC1 (racemic) [Compound 94]	14.99 (≈ 31.6 µM)	6.70 (≈ 14.1 µM)	
COc1nc2ccc(Br)cc2cc1C(c1ccccc1Cl)C1(O)CCNCC1.O=C(O)/C=C/C(=O)O (racemic) [Compound 95]	15.22	6.06	
COc1nc2ccc(-c3cccnc3)cc2cc1C(c1ccccc1Cl)C1(O)CCNCC1.O=C(O)/C=C/C(=O)O (racemic) [Compound 97]	16.25	4.08	
COc1nc2ccc(Br)cc2cc1C(c1cccc(Cl)c1)C1(O)CCNCC1.O=C(O)/C=C/C(=O)O (racemic) [Compound 98]	15.62	7.83	
COc1nc2ccc(S(C)(=O)=O)cc2cc1C(c1ccccc1)C1(O)CCNCC1.O=C(O)/C=C/C(=O)O (racemic) [Compound 99]	>13.31	>13.31	
COc1nc2ccc(Br)cc2cc1C(c1ccc(Cl)cc1)C1(O)CCN(Cc2cccc(C#N)c2)CC1.O=C(O)/C=C/C(=O)O (racemic) [Compound 105]	14.49	14.49	
OC1(C(c2ccc(Cl)cc2)c2cc3cc(Br)ccc3nc2N2CCOCC2)CCN(CCc2ccccc2)CC1 (centres unmarked) [Compound 1]			IC90 [1]: 6.81 µg/mL (≈ 11 µM); melting point: 158 °C
COc1nc2ccc(Br)cc2cc1C(c1ccc(Cl)cc1)C1(O)CCN(Cc2ccccc2)CC1 (centres unmarked) [Compound 6]			IC90 [1]: > 13.9 µg/mL; IC90 [2]: > 13.9 µg/mL
O=c1[nH]c2ccc(Br)cc2cc1C(c1ccc(Cl)cc1)C1(O)CCN(Cc2ccccc2)CC1 (centres unmarked) [Compound 10]			IC90 [1]: 4.27 µg/mL (≈ 7.94 µM); melting point: 244 °C
C=Cc1ccc2nc(OC)c(C(c3ccc(Cl)cc3)C3(O)CCN(Cc4ccccc4)CC3)cc2c1 (centres unmarked) [Compound 11]			IC90 [1]: > 39.8 µg/mL; melting point: 195 °C
COc1nc2ccccc2cc1C(c1ccccc1)C1(O)CCNCC1 (centres unmarked) [Compound 12]			IC90 [1]: > 22 µg/mL; melting point: 119 °C
COc1nc2ccc(C#N)cc2cc1C(c1ccc(Cl)cc1)C1(O)CCN(Cc2ccccc2)CC1 (centres unmarked) [Compound 13]			IC90 [1]: 25.6 µg/mL (≈ 51.3 µM); melting point: 199 °C
COc1nc2ccc(Br)cc2cc1C(c1ccc(S(C)(=O)=O)cc1)C1(O)CCNCC1 (centres unmarked) [Compound 19]			IC90 [1]: > 16.1 µg/mL; IC90 [2]: > 16.1 µg/mL
COc1nc2ccc(Br)cc2cc1C(c1ccc(S(C)(=O)=O)cc1)C1(O)CCN(Cc2ccccc2)CC1 (centres unmarked) [Compound 20]			IC90 [1]: 7.5 µg/mL (≈ 12.6 µM); IC90 [2]: 3.76 µg/mL (≈ 6.31 µM)
COc1nc2ccc(Br)cc2cc1C(c1ccccc1)C1(O)CCN(C)CC1 (centres unmarked) [Compound 28]	>27.85	11.09 (≈ 25.1 µM)	
COc1nc2ccc(Br)cc2cc1C(c1ccc(Cl)cc1)C1(O)CCN(CCc2ccccc2)CC1.O=C(O)/C=C/C(=O)O (centres unmarked) [Compound 47]	17.86	4.49	
COc1nc2ccc(Br)cc2cc1C(c1ccc(C#N)cc1)C1(O)CCN(Cc2ccccc2)CC1 (centres unmarked) [Compound 58]			IC90 [1]: 8.47 µg/mL (≈ 15.6 µM); melting point: 220 °C

Structure (SMILES)	IC90 (μg/ml) STA B29213 [1] [µg/mL]	IC90 (μg/ml) MSM 607 [2] [µg/mL]	other results
COc1nc2ccc(Br)cc2cc1C(c1cccc(C)c1)C1(O)CCN(Cc2ccccc2)CC1 (centres unmarked) [Compound 61]	15.85 (≈ 29.8 µM)	3.16 (≈ 5.95 µM)	
COc1nc2ccc(Br)cc2cc1C(c1ccc(Cl)cc1)C1(O)CCN(Cc2ccccc2C)CC1 (centres unmarked) [Compound 62]	15.85 (≈ 28 µM)	3.16 (≈ 5.58 µM)	
COc1nc2ccc(C#N)cc2cc1C(c1ccc(Cl)cc1)C1(O)CCN(Cc2ccc(C)cc2)CC1 (centres unmarked) [Compound 76]	>21.99		
O=C(O)/C=C/C(=O)O.OC1(C(c2ccc(Cl)cc2)c2cc3cc(Br)ccc3nc2N2CCOCC2)CCN(Cc2ccccc2)CC1 (centres unmarked) [Compound 77]	>47.23		
O=c1[nH]c2ccc(-c3cccnc3)cc2cc1C(c1ccc(Cl)cc1)C1(O)CCN(Cc2ccccc2)CC1 (centres unmarked) [Compound 78]	13.47 (≈ 25.1 µM)		
O=c1[nH]c2ccc(Br)cc2cc1C(c1ccc(Cl)cc1)C1(O)CCNCC1 (centres unmarked) [Compound 79]	28.25 (≈ 63.1 µM)		
COc1ccc2nc(OC)c(C(c3ccc(Cl)cc3)C3(O)CCN(Cc4ccccc4)CC3)cc2c1.O=C(O)/C=C/C(=O)O (centres unmarked) [Compound 81]	10.05		
COc1nc2ccc(Br)cc2cc1C(C1Oc2ccccc2O1)C1(O)CCN(Cc2ccccc2)CC1.O=C(O)/C=C/C(=O)O (centres unmarked) [Compound 85]	34.54		
COc1nc2ccc(C(F)(F)F)cc2cc1C(c1ccc(Cl)cc1)C1(O)CCN(Cc2ccccc2)CC1.O=C(O)/C=C/C(=O)O (centres unmarked) [Compound 86]	>43.95		
O=C(O)/C=C/C(=O)O.OC1(C(c2ccc(Cl)cc2)c2cc3cc(Br)ccc3nc2N2CCCCC2)CCN(Cc2ccccc2)CC1 (centres unmarked) [Compound 87]	>48.13		
COc1nc2ccc(Cl)cc2cc1C(c1ccc(Br)cc1)C1(O)CCN(Cc2ccccc2)CC1 (centres unmarked) [Compound 88]	3.98 (≈ 7.21 µM)	3.16 (≈ 5.73 µM)	
COc1nc2ccc(C(C)C)cc2cc1C(c1ccc(Cl)cc1)C1(O)CCN(Cc2ccccc2)CC1.O=C(O)/C=C/C(=O)O (centres unmarked) [Compound 90]	>41.36		
Cn1c(=O)c(C(c2ccc(Cl)cc2)C2(O)CCN(Cc3ccccc3)CC2)cc2cc(Br)ccc21 (centres unmarked) [Compound 96]	13.86 (≈ 25.1 µM)	6.19 (≈ 11.2 µM)	
CS(=O)(=O)c1ccc2[nH]c(=O)c(C(c3ccccc3)C3(O)CCNCC3)cc2c1 (centres unmarked) [Compound 100]			IC90 [1]: > 11.3 µg/mL; IC90 [2]: > 11.3 µg/mL
Cl.O=c1[nH]c2ccc(Br)cc2cc1C(c1cccc(Cl)c1)C1(O)CCNCC1 (centres unmarked) [Compound 101]	>12.04	12.04	
CCn1c(=O)c(C(c2ccc(Cl)cc2)C2(O)CCNCC2)cc2cc(Br)ccc21.O=C(O)/C=C/C(=O)O (centres unmarked) [Compound 102]	14.58	11.58	
Cl.N#Cc1ccc(C(c2cc3cc(Br)ccc3[nH]c2=O)C2(O)CCNCC2)cc1 (centres unmarked) [Compound 103]	>11.93	>11.93	
COc1nc2ccc(C(N)=O)cc2cc1C(c1ccc(Cl)cc1)C1(O)CCN(Cc2ccccc2)CC1 (centres unmarked) [Compound 107]	>12.96	12.96 (≈ 25.1 µM)	
COc1nc2ccc(C(=O)N(C)C)cc2cc1C(c1ccc(Cl)cc1)C1(O)CCN(Cc2ccccc2)CC1 (centres unmarked) [Compound 108]	>13.67	>13.67	
